Holding throughout (type): cell-based
One experiment relates to Citrobacter diversus. Description: MIC against Gram-negative bacteria: Citrobacter diversus. The conditions noted are these: 5×10^5 CFU/mL; for MIC against C. diversus: Citrobacter diversus. The procedure, abridged: (§1)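 Broth microdilution, LB medium, final inoculum 5×10^5 CFU/mL from McFarland 0.5 cultures. Recombinant human EGF domain proteins tested in two-fold steps, n=3. MIC: lowest concentration, no growth.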

For the next experiment, the system named is Serratia marcescens. The experiment is described as follows: MIC against Gram-negative bacteria: Serratia marcescens. The settings on record: 5×10^5 CFU/mL; for MIC against S. marcescens: Serratia marcescens. The procedure, abridged: as §1
For the next experiment, the system named is Klebsiella pneumonia. Description: MIC against Gram-negative bacteria: Klebsiella pneumonia. The settings on record: 5×10^5 CFU/mL; for MIC against K. pneumonia: Klebsiella pneumonia. The procedure, abridged:
as §1

For the next experiment, the system named is Aeromonas hydrophila. The experiment is described as follows: MIC against Gram-negative bacteria: Aeromonas hydrophila. The conditions noted are these: 5×10^5 CFU/mL; for MIC against A. hydrophila: Aeromonas hydrophila. The procedure, abridged:
as §1

The next experiment has as its system E. coli DH5α. The experiment is described as follows: Antibacterial activity: MIC and growth curve against E. coli DH5α in 96-well plate. The settings on record: minimal inhibitory concentration against E. coli DH5α; 96-well plate, 5×10^5 CFU/mL, 37° C., judged after 8 h. The procedure, abridged: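 Log-phase bacteria (OD600 ~0.5) resuspended in LB at 5×10^5 CFU/mL, exposed to recombinant protein at 50, 25, 12.5 μg/mL final in triplicate, 37 °C shaking at 175 rpm. OD600 read every 30 min; MIC is lowest concentration showing no growth.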

A further experiment has as its system Proteus vulgaris. The experiment is described as follows: MIC against Gram-negative bacteria: Proteus vulgaris. The conditions noted are these: 5×10^5 CFU/mL; for MIC against P. vulgaris: Proteus vulgaris. An outline of the steps: as §1
The next experiment has as its system Proteus mirabilis. The experiment is described as follows: MIC against Gram-negative bacteria: Proteus mirabilis. The conditions noted are these: 5×10^5 CFU/mL; for MIC against P. mirabilis: Proteus mirabilis. An outline of the steps:
as §1

The test system of a further experiment is Pseudomonas aeruginosa. Description: MIC against Gram-negative bacteria: Pseudomonas aeruginosa. The conditions noted are these: 5×10^5 CFU/mL; for MIC against P. aeruginosa: Pseudomonas aeruginosa. The procedure, abridged: as §1
For a further experiment, the system named is Enterobacter cloacae. Description: MIC against Gram-negative bacteria: Enterobacter cloacae. The conditions noted are these: 5×10^5 CFU/mL; for MIC against E. cloacae: Enterobacter cloacae. The procedure, abridged: as §1
The test system of a further experiment is Moraxella catarrhalis. The experiment is described as follows: MIC against Gram-negative bacteria: Moraxella catarrhalis. The conditions noted are these: 5×10^5 CFU/mL; for MIC against M. catarrhalis: Moraxella catarrhalis. An outline of the steps: as §1
The subject of a further experiment is E. coli BL21. The experiment is described as follows: MIC against Gram-negative bacteria: E. coli BL21. The conditions noted are these: 5×10^5 CFU/mL. The procedure, abridged:
as §1

Where [1] appears, read: 10 h cultivation at 37° C., two-fold serial dilution.
Setting [2] is: E. coli BL21, 10 h cultivation at 37° C.
[3] abbreviates: E. coli BL21, 96-well plate, 37° C., 10 h.

With “PRT1049 (WGENCAQTCQCHHGGTCHPQDGSCICPLGWTGHHCL; listed as Homo sapiens)”, the “MIC C. diversus” value in the experiment on Citrobacter diversus (setting [1]) is 12.5 µg/mL. The “MIC S. marcescens” value with Serratia marcescens (setting [1]) was 50 µg/mL. Moreover, the “MIC K. pneumonia” value in the experiment on Klebsiella pneumonia (setting [1]) was 25 µg/mL. Also, the “MIC A. hydrophila” value with Aeromonas hydrophila (setting [1]) came out at 12.5 µg/mL. In the experiment with E. coli DH5α, this substance displayed an MIC of 12.5 µg/mL. For the same substance, the “MIC P. vulgaris” value in the experiment with Proteus vulgaris (setting [1]) was found to be 12.5 µg/mL. In addition, in the experiment on Proteus mirabilis (setting [1]), the “MIC P. mirabilis” value amounted to 50 µg/mL. Also, in the experiment with Pseudomonas aeruginosa (setting [1]), the “MIC P. aeruginosa” value was found to be 12.5 µg/mL. The “MIC E. cloacae” value against Enterobacter cloacae (setting [1]) turned out to be 12.5 µg/mL. The “MIC M. catarrhalis” value in the experiment with Moraxella catarrhalis (setting [1]) was determined as 12.5 µg/mL. Further, the “MIC E. coli BL21” value in the experiment with E. coli BL21 (setting [1]) stood at 25 µg/mL.

Consider “PRT160 (KIDYCILDPCRNGATCISSLSGFTCQCPEGYFGSACE; listed as Homo sapiens)”, for which the “MIC (μg/mL) C. diversus” value in the experiment with Citrobacter diversus (C. diversus, 10 h cultivation at 37° C.) came to 12.5 µg/mL. Moreover, the “MIC (μg/mL) S. marcescens” value against Serratia marcescens (S. marcescens, 10 h cultivation at 37° C.) was 12.5 µg/mL. For the same substance, the “MIC (μg/mL) K. pneumonia” value with Klebsiella pneumonia (K. pneumonia, 10 h cultivation at 37° C.) amounted to 25 µg/mL. The “MIC (μg/mL) A. hydrophila” value against Aeromonas hydrophila (A. hydrophila, 10 h cultivation at 37° C.) worked out at 25 µg/mL. This substance also yielded an MIC in the experiment with E. coli DH5α of 12.5 µg/mL. For the same substance, the “MIC (μg/mL) P. vulgaris” value against Proteus vulgaris (P. vulgaris, 10 h cultivation at 37° C.) turned out to be 25 µg/mL. For the same substance, in the experiment with Proteus mirabilis (P. mirabilis, 10 h cultivation at 37° C.), the “MIC (μg/mL) P. mirabilis” value worked out at 12.5 µg/mL. Besides, the “MIC (μg/mL) P. aeruginosa” value in the experiment with Pseudomonas aeruginosa (P. aeruginosa, 10 h cultivation at 37° C.) is 12.5 µg/mL. The “MIC (μg/mL) E. cloacae” value in the experiment with Enterobacter cloacae (E. cloacae, 10 h cultivation at 37° C.) turned out to be 25 µg/mL. Further, the “MIC (μg/mL) M. catarrhalis” value with Moraxella catarrhalis (M. catarrhalis, 10 h cultivation at 37° C.) came to 25 µg/mL. Moreover, in the experiment with E. coli BL21 (setting [2]), the “MIC (μg/mL) E. coli BL21” value stood at 25 µg/mL.

As for “PRT1354 (RDRQCPRDCSNRGLCVDGQCVCEDGFTGPDCA; listed as Homo sapiens)”, in the experiment with Citrobacter diversus (10 h cultivation at 37° C.), the “MIC against C. diversus” value was found to be 25 µg/mL. In addition, the “MIC against S. marcescens” value in the experiment on Serratia marcescens (10 h cultivation at 37° C.) is 25 µg/mL. Besides, the “MIC against K. pneumonia” value in the experiment on Klebsiella pneumonia (10 h cultivation at 37° C.) came to 50 µg/mL. Moreover, the “MIC against A. hydrophila” value against Aeromonas hydrophila (10 h cultivation at 37° C.) was 12.5 µg/mL. In the experiment on E. coli DH5α, this substance gave an MIC of 25 µg/mL. Also, the “MIC against P. vulgaris” value in the experiment on Proteus vulgaris (10 h cultivation at 37° C.) stood at 12.5 µg/mL. For the same substance, the “MIC against P. mirabilis” value with Proteus mirabilis (10 h cultivation at 37° C.) was found to be 25 µg/mL. In addition, the “MIC against P. aeruginosa” value with Pseudomonas aeruginosa (10 h cultivation at 37° C.) came out at 25 µg/mL. For the same substance, the “MIC against E. cloacae” value with Enterobacter cloacae (10 h cultivation at 37° C.) was determined as 25 µg/mL. For the same substance, the “MIC against M. catarrhalis” value against Moraxella catarrhalis (10 h cultivation at 37° C.) turned out to be 50 µg/mL. Further, the “MIC against E. coli BL21” value against E. coli BL21 (setting [2]) was 12.5 µg/mL.

For the substance “PRT1308 (TSPQCPRKCDPNANCVQDSAGASTCACAAGYSGNGIFCS; listed as Homo sapiens)”, in the experiment on Citrobacter diversus (96-well plate, 37° C., 10 h), the “MIC against C. diversus” value is 25 µg/mL. Also, the “MIC against S. marcescens” value in the experiment on Serratia marcescens (96-well plate, 37° C., 10 h) turned out to be 50 µg/mL. Besides, the “MIC against K. pneumonia” value against Klebsiella pneumonia (96-well plate, 37° C., 10 h) is 12.5 µg/mL. For the same substance, the “MIC against A. hydrophila” value against Aeromonas hydrophila (96-well plate, 37° C., 10 h) worked out at 12.5 µg/mL. In the experiment with E. coli DH5α, this substance had an MIC of 50 µg/mL. Moreover, in the experiment with Proteus vulgaris (96-well plate, 37° C., 10 h), the “MIC against P. vulgaris” value is 12.5 µg/mL. In the experiment with Proteus mirabilis (96-well plate, 37° C., 10 h), the “MIC against P. mirabilis” value was 25 µg/mL. Besides, the “MIC against P. aeruginosa” value against Pseudomonas aeruginosa (96-well plate, 37° C., 10 h) amounted to 50 µg/mL. In addition, the “MIC against E. cloacae” value against Enterobacter cloacae (96-well plate, 37° C., 10 h) is 50 µg/mL. Besides, in the experiment on Moraxella catarrhalis (96-well plate, 37° C., 10 h), the “MIC against M. catarrhalis” value came to 50 µg/mL. In the experiment on E. coli BL21 (setting [3]), the “MIC against E. coli BL21” value stood at 12.5 µg/mL.

Consider “PRT1254 (DVDECSEGTDDCHIDAICQNTPKSYKCLCKPGYKGEGKQCE; listed as Homo sapiens)”, for which the “MIC against C. diversus” value with Citrobacter diversus (96-well plate, 37° C., 10 h) was found to be 12.5 µg/mL. Further, the “MIC against S. marcescens” value against Serratia marcescens (96-well plate, 37° C., 10 h) worked out at 50 µg/mL. Also, in the experiment on Klebsiella pneumonia (96-well plate, 37° C., 10 h), the “MIC against K. pneumonia” value stood at 25 µg/mL. In the experiment on Aeromonas hydrophila (96-well plate, 37° C., 10 h), the “MIC against A. hydrophila” value worked out at 50 µg/mL. The substance further displayed an MIC in the experiment on E. coli DH5α of 12.5 µg/mL. For the same substance, the “MIC against P. vulgaris” value against Proteus vulgaris (96-well plate, 37° C., 10 h) worked out at 25 µg/mL. Further, the “MIC against P. mirabilis” value with Proteus mirabilis (96-well plate, 37° C., 10 h) worked out at 12.5 µg/mL. Also, the “MIC against P. aeruginosa” value against Pseudomonas aeruginosa (96-well plate, 37° C., 10 h) turned out to be 50 µg/mL. Also, the “MIC against E. cloacae” value with Enterobacter cloacae (96-well plate, 37° C., 10 h) is 12.5 µg/mL. Besides, the “MIC against M. catarrhalis” value in the experiment with Moraxella catarrhalis (96-well plate, 37° C., 10 h) is 50 µg/mL. In the experiment with E. coli BL21 (setting [3]), the “MIC against E. coli BL21” value amounted to 25 µg/mL.

The values are drawn from US9833497B2, “Human originated EGF domain proteins and use of the same” (CHENGDU SOURCEBIO LIMITED-LIABILITY COMPANY, priority 2013, dated 2017).
